According to patent US20150266850A1 (E.I.DU PONT DE NEMOURS AND COMPANY, priority 2012, published 2015):
Marks after values point to notes of the source that are not given here.

Legend:
Format in all cases: in vivo
[1] = system: Erysiphe graminis f. sp. tritici; assay: Test A: wheat powdery mildew, preventive spray on wheat seedlings, visual disease rating; conditions: 100 = 100% disease control; for pest or weed control at 40 ppm: Blumeria graminis, 192 h
From the text: (§1) General protocol for preparing test suspensions for Tests A-E: the test compounds were first dissolved in acetone in an amount equal to 11% of the final volume and then suspended at the desired concentration (in ppm) in acetone and purified water (50/50 mix by volume) containing 250 ppm of the surfactant Trem® 014 (polyhydric alcohol esters). The resulting test suspensions were then used in Tests A-E. Spraying a 200 ppm test suspension to the point of run-off on the test plants was the equivalent of a rate of 800 g/ha.
The test suspension was sprayed to the point of run-off on wheat seedlings. The following day the seedlings were inoculated with a spore dust of Erysiphe graminis f. sp. tritici, (the causal agent of wheat powdery mildew) and incubated in a growth chamber at 20° C. for 8 days, after which time disease ratings were visually made.
(§2) Results for Tests A-E are given in Table A. In the Table, a rating of 100 indicates 100% disease control and a rating of 0 indicates no disease control (relative to the controls). A dash (-) indicates no test results. All results are for 200 ppm except where followed by an “*”, which indicates 40 ppm or “**”, which indicates 50 ppm.

[2] = system: Puccinia recondita f sp. tritici; assay: Test B: wheat leaf rust, preventive spray on wheat seedlings, visual disease rating; conditions: 100 = 100% disease control; for pest or weed control at 40 ppm: 192 h
From the text: as §1
(§3) The test suspension was sprayed to the point of run-off on wheat seedlings. The following day the seedlings were inoculated with a spore suspension of Puccinia recondita f sp. tritici (the causal agent of wheat leaf rust) and incubated in a saturated atmosphere at 20° C. for 24 h, and then moved to a growth chamber at 20° C. for 7 days, after which time disease ratings were visually made.
as §2

Septoria nodorum = assay: Test D: wheat glume blotch, preventive spray on wheat seedlings, visual disease rating; conditions: 100 = 100% disease control; for pest or weed control at 40 ppm: Parastagonospora nodorum, 216 h
From the text: as §1
as §3, with “Septoria nodorum” for “Puccinia recondita f sp. tritici”, “glume blotch)” for “leaf rust)”, “48” for “24”
as §2

Botrytis cinerea = assay: Test E: tomato botrytis, preventive spray on tomato seedlings, visual disease rating; conditions: 100 = 100% disease control
From the text: as §1
The test suspension was sprayed to the point of run-off on tomato seedlings. The following day the seedlings were inoculated with a spore suspension of Botrytis cinerea (the causal agent of tomato botrytis) and incubated in saturated atmosphere at 20° C. for 48 h, and then moved to a growth chamber at 27° C. for 3 additional days, after which time disease ratings were visually made.
as §2

Septoria tritici = assay: Test C: wheat leaf blotch, preventive spray on wheat seedlings, visual disease rating; conditions: 40 ppm (*), 100 = 100% disease control; for pest or weed control at 40 ppm: Zymoseptoria tritici, 504 h
From the text: as §1
The test suspension was sprayed to the point of run-off on wheat seedlings. The following day the seedlings were inoculated with a spore suspension of Septoria tritici (the causal agent of wheat leaf blotch) and incubated in a saturated atmosphere at 24° C. for 48 h, and then moved to a growth chamber at 20° C. for 19 days, after which time disease ratings were visually made.
as §2

Row | Compound | Test A disease control rating ([1]; 40 ppm (*)) | Test B disease control rating ([2]; 40 ppm (*)) | Test D disease control rating (Septoria nodorum; 40 ppm (*)) | Test E disease control rating (Botrytis cinerea; 40 ppm (*)) | Test C disease control rating (Septoria tritici) | also measured
1 | C#Cc1cc(OC)ccc1-c1cnn(-c2ccc(C)c(CNC(=O)OC)c2)n1 [Cmpd 47] | 99* % | 100* % | 100* % | 0* % |  | 
2 | COC(=O)NCc1cc(-n2ncc(-c3ccc(OC)cc3OCC#N)n2)ccc1C [Cmpd 73] | 99* % | 100* % | 100* % | 0* % |  | 
3 | C#CCOc1cc(OC)ccc1-c1cnn(-c2ccc(C)c(CNC(=O)OC)c2)n1 [Cmpd 74] | 98* % | 100* % | 100* % | 8* % |  | 
4 | C=CCOc1cc(OC)ccc1-c1cnn(-c2ccc(C)c(CNC(=O)OC)c2)n1 [Cmpd 75] | 90* % | 100* % | 100* % | 8* % |  | 
5 | COC(=O)NCc1cc(-n2ccc(-c3ccc(OC)cc3C3CC3)n2)ccc1C [Cmpd 82] | 99* % | 100* % | 100* % | 0* % |  | 
6 | CCc1cc(OC)ccc1-c1ccn(-c2ccc(C)c(CNC(=O)OC)c2)n1 [Cmpd 83] | 99* % | 100* % | 100* % | 0* % |  | 
7 | COC(=O)NCc1cc(-n2ncc(-c3ccc(OC)cc3[N+](=O)[O-])n2)ccc1C [Cmpd 85] | 99* % | 100* % | 100* % | 0* % |  | 
8 | CCOc1cc(OC)ccc1-c1cnn(-c2ccc(C)c(CNC(=O)OC)c2)n1 [Cmpd 88] | 100* % | 100* % | 100* % | 0* % |  | 
9 | COC(=O)NCc1cc(-n2ccc(-c3ccc(I)cc3Cl)n2)ccc1C [Cmpd 92] | 99* % | 100* % | 100* % | 33* % |  | 
10 | COC(=O)NCc1cc(-c2ccn(-c3ccc(C#N)cc3C#N)n2)ccc1C [Cmpd 93] |  |  |  |  |  | Test A disease control rating ([1]; 200 ppm): 0%; Test B disease control rating ([2]; 200 ppm): 0%; Test D disease control rating (Septoria nodorum; 200 ppm): 64%; Test E disease control rating (Botrytis cinerea; 200 ppm): 0%
11 | COC(=O)NCc1cc(-n2ncc(-c3ccc(I)cc3OC)n2)ccc1C [Cmpd 95] | 98* % | 100* % | 100* % | 0* % |  | 
12 | COC(=O)NCc1cc(-n2ncc(-c3ccc(OC)cc3I)n2)ccc1C [Cmpd 96] | 99* % | 100* % | 100* % | 70* % |  | 
13 | COC(=O)NCc1cc(-n2ncc(-c3ccc(C)cc3OCC#N)n2)ccc1C [Cmpd 98] | 95* % | 100* % | 100* % | 6* % |  | 
14 | C#Cc1ccc(-c2cnn(-c3ccc(C)c(CNC(=O)OC)c3)n2)c(OC)c1 [Cmpd 99] | 99* % | 100* % | 100* % | 14* % |  | 
15 | C#CCOc1ccc(-c2cnn(-c3ccc(C)c(CNC(=O)OC)c3)n2)c(C)c1 [Cmpd 106] | 99* % | 100* % | 100* % |  | 98* % | 
16 | CCOc1ccc(-c2cnn(-c3ccc(C)c(CNC(=O)OC)c3)n2)c(C)c1 [Cmpd 107] | 99* % | 100* % | 100* % |  | 99* % | 

Row | Compound | Test A disease control rating ([1]; 40 ppm (*)) | Test B disease control rating ([2]; 40 ppm (*)) | Test D disease control rating (Septoria nodorum; 40 ppm (*)) | Test E disease control rating (Botrytis cinerea; 40 ppm (*)) | Test C disease control rating (Septoria tritici) | also measured
17 | C#Cc1ccc(-c2ccn(-c3ccc(C)c(CNC(=O)OC)c3)n2)c(C)c1 [Cmpd 112] | 100* % | 100* % | 100* % |  | 97* % | 
18 | C=Cc1ccc(-c2ccn(-c3ccc(C)c(CNC(=O)OC)c3)n2)c(C)c1 [Cmpd 113] | 40* % | 99* % | 100* % |  | 74* % | 
19 | COC(=O)NCc1cc(-n2ccc(-c3ccc(C)cc3Br)n2)ccc1C [Cmpd 127] | 100* % | 100* % | 100* % |  | 93* % | 
20 | CCOc1ccc(-c2ccn(-c3ccc(C)c(CNC(=O)OC)c3)n2)c(C)c1 [Cmpd 128] | 99* % | 100* % | 100* % |  | 98* % | 
21 | CCOc1cc(F)ccc1-c1ccn(-c2ccc(C)c(CNC(=O)OC)c2)n1 [Cmpd 129] | 98* % | 100* % | 100* % |  | 68* % | 
22 | COC(=O)NCc1cc(-n2ccc(-c3ccc(C)nc3OC)n2)ccc1C [Cmpd 131] | 99* % | 100* % | 100* % |  | 97* % | 
23 | CCOc1ccc(-c2ccn(-c3ccc(C)c(CNC(=O)OC)c3)n2)c(F)c1 [Cmpd 137] | 100* % | 100* % | 100* % |  | 97* % | 
24 | CCOc1cc(C)ccc1-c1ccn(-c2ccc(C)c(CNC(=O)OC)c2)n1 [Cmpd 138] | 99* % | 100* % | 100* % |  | 95* % | 
25 | COC(=O)NCc1cc(-n2ccc(-c3ccc(C(C)=O)cc3C)n2)ccc1C [Cmpd 140] | 91* % | 100* % | 100* % |  | 94* % | 
26 | COC(=O)NCc1cc(-n2ncc(-c3ccc(Br)cc3OC)n2)ccc1C [Cmpd 141] | 99* % | 100* % | 100* % |  | 97* % | 
27 | CCOc1ccc(-c2ccn(-c3ccc(C)c(CNC(=O)OC)c3)n2)c(C)n1 [Cmpd 142] | 99* % | 100* % | 100* % |  | 99* % | 
28 | COC(=O)NCc1cc(-n2ncc(-c3ccc(OC)cc3Br)n2)ccc1C [Cmpd 143] | 99* % | 100* % | 100* % |  | 99* % | 
29 | COC(=O)NCc1cc(-c2ccn(-c3ccc(C)nc3C)n2)ccc1C [Compound 114, methyl N-[[5-[1-(2,6-dimethyl-3-pyridinyl)-1H-pyrazol-3-yl]-2-methylphenyl]methyl]carbamate] |  |  |  |  |  | pest or weed control at 40 ppm ([1]; 40 ppm (*)): 90%; pest or weed control at 40 ppm ([2]; 40 ppm (*)): 100%; pest or weed control at 40 ppm (Septoria nodorum; 40 ppm (*)): 100%; pest or weed control at 40 ppm (Septoria tritici): 86%
30 | COC(=O)NCc1cc(-n2ccc(-c3ccc(C)nc3C)n2)ccc1C [Compound 130, methyl N-[[5-[3-(2,6-dimethyl-3-pyridinyl)-1H-pyrazol-1-yl]-2-methylphenyl]methyl]carbamate] |  |  |  |  |  | pest or weed control at 40 ppm ([1]; 40 ppm (*)): 96%; pest or weed control at 40 ppm ([2]; 40 ppm (*)): 99%; pest or weed control at 40 ppm (Septoria nodorum; 40 ppm (*)): 100%; pest or weed control at 40 ppm (Septoria tritici): 86%
31 | methyl N-[[5-[3-(6-methoxy-2-methyl-3-pyridinyl)-1H-pyrazol-1-yl]-2-methylphenyl]methyl]carbamate [Compound 115] | 100* % | 100* % | 100* % |  | 99* % | 
